Source: patent US20260327224A1, “SUBSTITUTED PYRIDOTRIAZOLE COMPOUND, AND PREPARATION METHOD THEREFOR AND USE THEREOF” (ORIGIANT PHARMACEUTICAL CO., LTD., priority 2023, published 2026)

What follows are compounds tested on HT-29 cells (colon cancer cells) (assay: In vitro assay for protection of HT-29 cells from necroptosis (TNFα/Smac mimetic/Z-VAD-FMK, CCK-8)). Conditions: Homo sapiens, Protective Activity Against Necroptosis, TNFα/Smac mimetic/Z-VAD-FMK induced, 24 h.
Type: cell-based
Description: Z′=1−3(SDmin+SDmax)/(AVEmax−AVEmin) • wherein: • Min is the positive control Data, and Max is the negative control DMSO Data. • SD is the standard deviation, and AVE is the average. In Vitro Assay for Protection of HT-29 Cells from Necroptosis:
1) Experimental Materials
DMEM medium was purchased from Gibco; penicillin-streptomycin was purchased from Hyclone; TNFα was purchased from Peprotech; Smac mimetic and Z-VAD-FMK were purchased from Selleck; and CCK-8 was purchased from Medchem Express.
HT-29 cells (colon cancer cells) were cultured in DMEM+10% FBS+penicillin/streptomycin. For the experiment, HT-29 cells in the logarithmic phase were collected and seeded into 96-well plates at a specific density (typically 8×10^3 cells/well for adherent cells). The cells were cultured overnight in an incubator at 37° C. with 5% CO2. On the following day, the test compound was diluted with culture medium to the corresponding concentrations and added into the 96-well plate, with 3 replicate wells for each sample. A solvent control group and a blank control group containing only culture medium were set simultaneously. The spiked cells were induced with a combination of TNFα/Smac mimetic/Z-VAD-FMK for 24 h. Subsequently, 10 μL of CCK8 solution was added to each well, and the cells were incubated in an incubator for 1-3 h. Absorbance was measured at […] using a microplate reader, and the cell necrosis protection rate of the drug was calculated using the following formula:
Cell necrosis protection rate=[(X−C0)/(C−C0)]×100% • where C, C0, and X represent the average absorbance values of the solvent control group, the blank control group, and the drug treatment group, respectively. Finally, a cell viability curve was fitted using Graphpad Prism 5.0 software, and the EC50 value of the test compound for inhibiting necroptosis was calculated.

Question: How did the EC50 turn out when `C[C@H](NC(=O)c1cn(C)c2ccc(-c3ccn4nc(NC(=O)CN5CC[C@@H](CO)C5)nc4c3)cc12)c1ccc(F)cc1` [Compound 62] was run?
Answer: < 1 nM

Question: For `C[C@H](NC(=O)c1cn(C)c2ccc(-c3ccn4nc(NC(=O)CC(=O)O)nc4c3)cc12)c1ccc(F)cc1` [Compound 63], which EC50 is on record?
Answer: 1000 to 10000 nM

Question: How did the EC50 turn out when `C[C@H](NC(=O)c1cn(C)c2ccc(-c3ccn4nc(NC(=O)CN5CCN(C(=O)OC(C)(C)C)C[C@H]5C)nc4c3)cc12)c1ccc(F)cc1` [Compound 64] was run?
Answer: < 1 nM

Question: `C[C@H](NC(=O)c1cn(C)c2ccc(-c3ccn4nc(NC(=O)CNCCOCCO)nc4c3)cc12)c1ccc(F)cc1` [Compound 65] was tested. Which EC50 did it give?
Answer: < 1 nM

Question: For `C[C@H](NC(=O)c1cn(C)c2ccc(-c3ccn4nc(NC(=O)CNCC5CC5)nc4c3)cc12)c1ccc(F)cc1` [Compound 66], which EC50 is on record?
Answer: < 1 nM

Question: How did the EC50 turn out when `CC(C)NCC(=O)Nc1nc2cc(-c3ccc4c(c3)c(C(=O)N[C@@H](C)c3ccc(F)cc3)cn4C)ccn2n1` [Compound 67] was run?
Answer: < 1 nM

Question: With `COCCNCC(=O)Nc1nc2cc(-c3ccc4c(c3)c(C(=O)N[C@@H](C)c3ccc(F)cc3)cn4C)ccn2n1` [Compound 68] as the compound, how does the EC50 read?
Answer: < 1 nM

Question: `C[C@H](NC(=O)c1cn(C)c2ccc(-c3ccn4nc(NC(=O)CN5CCN(CCO)CC5)nc4c3)cc12)c1ccc(F)cc1` [Compound 70] was tested. Which EC50 did it give?
Answer: < 1 nM

Question: `C[C@H](NC(=O)c1cn(C)c2ccc(-c3ccn4nc(NC(=O)CN5CC6CCC(C5)O6)nc4c3)cc12)c1ccc(F)cc1` [Compound 71] was tested. Which EC50 did it give?
Answer: < 1 nM

Question: `C[C@H](NC(=O)c1cn(C)c2ccc(-c3ccn4nc(NC(=O)CN5CCOC[C@H]5C)nc4c3)cc12)c1ccc(F)cc1` [Compound 72] was tested. Which EC50 did it give?
Answer: < 1 nM

Question: For `C[C@H](NC(=O)c1cn(C)c2ccc(-c3ccn4nc(NC(=O)CN5C6CCC5COC6)nc4c3)cc12)c1ccc(F)cc1` [Compound 73], which EC50 is on record?
Answer: < 1 nM

Question: How did the EC50 turn out when `C[C@H](NC(=O)c1cn(C)c2ccc(-c3ccn4nc(NC(=O)CN(C)CCO)nc4c3)cc12)c1ccc(F)cc1` [Compound 74] was run?
Answer: < 1 nM

Question: `C[C@H](NC(=O)c1cn(C)c2ccc(-c3ccn4nc(NC(=O)CN5CCOCC5)nc4c3)cc12)c1ccc(F)cc1` [Compound 75] was tested. Which EC50 did it give?
Answer: < 1 nM

Question: With `CCNCC(=O)Nc1nc2cc(-c3ccc4c(c3)c(C(=O)N[C@@H](C)c3ccc(F)cc3)cn4C)ccn2n1` [Compound 76] as the compound, how does the EC50 read?
Answer: < 1 nM

Question: `C[C@H](NC(=O)c1cn(C)c2ccc(-c3ccn4nc(NC(=O)CNC5CCOC5)nc4c3)cc12)c1ccc(F)cc1` (stereo partly shown) [Compound 77] was tested. Which EC50 did it give?
Answer: < 1 nM

Question: How did the EC50 turn out when `C[C@H](NC(=O)c1cn(C)c2ccc(-c3ccn4nc(NC(=O)CN(C)C)nc4c3)cc12)c1ccc(Cl)cc1` [Compound 78] was run?
Answer: < 1 nM

Question: How did the EC50 turn out when `C[C@H](NC(=O)c1cn(C)c2ccc(-c3ccn4nc(NC(=O)CN5CC6CC5CO6)nc4c3)cc12)c1ccc(Cl)cc1` (stereo partly shown) [Compound 79] was run?
Answer: < 1 nM

Question: For `C[C@H](NC(=O)c1cn(C)c2ccc(-c3ccn4nc(NC(=O)CN5CC(F)(F)C5)nc4c3)cc12)c1ccc(Cl)cc1` [Compound 80], which EC50 is on record?
Answer: < 1 nM

Question: Which EC50 does the source give for `C[C@H](NC(=O)c1cn(C)c2ccc(-c3ccn4nc(NC(=O)CN5CCOC[C@H]5C)nc4c3)cc12)c1ccc(Cl)cc1` [Compound 81] here?
Answer: < 1 nM

Question: With `C[C@H](NC(=O)c1cn(C)c2ccc(-c3ccn4nc(NC(=O)CN5CCOC[C@@H]5C)nc4c3)cc12)c1ccc(Cl)cc1` [Compound 82] as the compound, how does the EC50 read?
Answer: < 1 nM

Question: How did the EC50 turn out when `C[C@H](NC(=O)c1cn(C)c2ccc(-c3ccn4nc(NC(=O)CN5CCOCC5)nc4c3)cc12)c1ccc(Cl)cc1` [Compound 83] was run?
Answer: < 1 nM

Question: How did the EC50 turn out when `CC1CN(CC(=O)Nc2nc3cc(-c4ccc5c(c4)c(C(=O)N[C@@H](C)c4ccc(Cl)cc4)cn5C)ccn3n2)CCO1` (stereo partly shown) [Compound 84] was run?
Answer: < 1 nM

Question: `C[C@@H]1CN(CC(=O)Nc2nc3cc(-c4ccc5c(c4)c(C(=O)N[C@@H](C)c4ccc(Cl)cc4)cn5C)ccn3n2)C[C@H](C)O1` [Compound 85] was tested. Which EC50 did it give?
Answer: < 1 nM

Question: `C[C@H](NC(=O)c1cn(C)c2ccc(-c3ccn4nc(NC(=O)CN5CCC(F)(F)CC5)nc4c3)cc12)c1ccc(Cl)cc1` [Compound 86] was tested. Which EC50 did it give?
Answer: < 1 nM

Question: For `C[C@H](NC(=O)c1cn(C)c2ccc(-c3ccn4nc(NC(=O)CN5CCSCC5)nc4c3)cc12)c1ccc(Cl)cc1` [Compound 87], which EC50 is on record?
Answer: < 1 nM

Question: `C[C@H](NC(=O)c1cn(C)c2ccc(-c3ccn4nc(NC(=O)CN5CCOCC5)nc4c3)cc12)c1ccco1` [Compound 88] was tested. Which EC50 did it give?
Answer: 1 to 10 nM

Question: How did the EC50 turn out when `C[C@H](NC(=O)c1cn(C)c2ccc(-c3ccn4nc(NC(=O)CN5CCOCC5)nc4c3)cc12)C(C)(C)C` [Compound 90] was run?
Answer: 1000 to 10000 nM

Question: How did the EC50 turn out when `C[C@H](NC(=O)c1cn(C)c2ccc(-c3ccn4nc(NC(=O)c5cnn(C)c5)nc4c3)cc12)C(C)(C)C` [Compound 91] was run?
Answer: 1000 to 10000 nM

Question: How did the EC50 turn out when `C[C@H](NC(=O)c1cn(C)c2ccc(-c3ccn4nc(NC(=O)C5CC5F)nc4c3)cc12)C(C)(C)C` (stereo partly shown) [Compound 92] was run?
Answer: 100 to 1000 nM

Question: `C[C@H](NC(=O)c1cn(C)c2ccc(-c3ccn4nc(NC(=O)C5CC5)nc4c3)cc12)C(C)(C)C` [Compound 93] was tested. Which EC50 did it give?
Answer: 100 to 1000 nM

Question: With `Cn1cc(C(=O)N[C@@H](CF)c2ccc(F)cc2)c2cc(-c3ccn4nc(NC(=O)CCl)nc4c3)ccc21` [Compound 94] as the compound, how does the EC50 read?
Answer: < 1 nM

Question: `CN1CCN(C(=O)Nc2nc3cc(-c4ccc5c(c4)c(C(=O)N[C@@H](CF)c4ccc(F)cc4)cn5C)ccn3n2)CC1` [Compound 95] was tested. Which EC50 did it give?
Answer: < 1 nM

Question: With `Cn1cc(C(=O)N[C@@H](CF)c2ccc(F)cc2)c2cc(-c3ccn4nc(NC(=O)CN5CCCCC5)nc4c3)ccc21` [Compound 96] as the compound, how does the EC50 read?
Answer: < 1 nM

Question: Which EC50 does the source give for `COCC(=O)Nc1nc2cc(-c3ccc4c(c3)c(C(=O)N[C@@H](CF)c3ccc(F)cc3)cn4C)ccn2n1` [Compound 97] here?
Answer: < 1 nM

Question: Which EC50 does the source give for `CO[C@@H](C)C(=O)Nc1nc2cc(-c3ccc4c(c3)c(C(=O)N[C@@H](CF)c3ccc(F)cc3)cn4C)ccn2n1` [Compound 98] here?
Answer: < 1 nM

Question: For `CC(C)Nc1nc2cc(-c3ccc4c(c3)c(C(=O)N[C@@H](CF)c3ccc(F)cc3)cn4C)ccn2n1` [Compound 99], which EC50 is on record?
Answer: < 1 nM

Question: How did the EC50 turn out when `CN1CC[C@@H](C(=O)Nc2nc3cc(-c4ccc5c(c4)c(C(=O)N[C@@H](CF)c4ccc(F)cc4)cn5C)ccn3n2)C1` [Compound 100] was run?
Answer: < 1 nM

Question: With `CN(C)CC(=O)Nc1nc2cc(-c3ccc4c(c3)c(C(=O)N[C@@H](CF)c3ccc(F)cc3)cn4C)ccn2n1` [Compound 101] as the compound, how does the EC50 read?
Answer: < 1 nM

Question: For `Cn1cc(C(=O)N[C@@H](CF)c2ccc(F)cc2)c2cc(-c3ccn4nc(NC(=O)C#N)nc4c3)ccc21` [Compound 102], which EC50 is on record?
Answer: < 1 nM

Question: How did the EC50 turn out when `Cn1cc(C(=O)N[C@@H](CF)c2ccc(F)cc2)c2cc(-c3ccn4nc(NC(=O)N5CCOCC5)nc4c3)ccc21` [Compound 103] was run?
Answer: < 1 nM

Question: With `Cn1cc(C(=O)N[C@@H](CF)c2ccc(F)cc2)c2cc(-c3ccn4nc(NC(=O)[C@H]5CCCO5)nc4c3)ccc21` [Compound 104] as the compound, how does the EC50 read?
Answer: 1000 to 10000 nM

Question: How did the EC50 turn out when `Cn1cc(C(=O)N[C@@H](CF)c2ccc(F)cc2)c2cc(-c3ccn4nc(NC(=O)C5(C)CCC5)nc4c3)ccc21` [Compound 105] was run?
Answer: 10 to 100 nM

Question: How did the EC50 turn out when `C[C@H](NC(=O)c1cn(C)c2ccc(-c3ccn4nc(NC(=O)C5CCOC5)nc4c3)cc12)c1ccc(F)cc1` (stereo partly shown) [Compound 106] was run?
Answer: < 1 nM

Question: `C[C@H](NC(=O)c1cn(C)c2ccc(-c3ccn4nc(NC5CCOC5)nc4c3)cc12)c1ccc(F)cc1` (stereo partly shown) [Compound 107] was tested. Which EC50 did it give?
Answer: < 1 nM

Question: How did the EC50 turn out when `Cn1cc(C(=O)N[C@@H](CF)c2ccc(F)cc2)c2cc(-c3ccn4nc(NCC5CC5)nc4c3)ccc21` [Compound 108] was run?
Answer: < 1 nM

Question: Which EC50 does the source give for `Cn1cc(C(=O)N[C@@H](CF)c2ccc(F)cc2)c2cc(-c3ccn4nc(NC(=O)C5CCOC5)nc4c3)ccc21` (stereo partly shown) [Compound 109] here?
Answer: 1 to 10 nM
